Experimental data taken from patent publication US5677297A, “Benzazepine-, benzoxazepine- and benzothiazepine-n-acetic acid derivatives, process for their preparation and pharmaceutical compositions containing them” (Solvay Pharmaceuticals GmbH, priority 1995, dated 1997).

Target: T1, endothelin-converting enzyme (ECE) (Homo sapiens, UniProt P42892)
T1 construct: expressed in transfected cells; host or cells: CHO cells (Chinese hamster ovary), membrane fraction
T1 sequence (P42892 1-770): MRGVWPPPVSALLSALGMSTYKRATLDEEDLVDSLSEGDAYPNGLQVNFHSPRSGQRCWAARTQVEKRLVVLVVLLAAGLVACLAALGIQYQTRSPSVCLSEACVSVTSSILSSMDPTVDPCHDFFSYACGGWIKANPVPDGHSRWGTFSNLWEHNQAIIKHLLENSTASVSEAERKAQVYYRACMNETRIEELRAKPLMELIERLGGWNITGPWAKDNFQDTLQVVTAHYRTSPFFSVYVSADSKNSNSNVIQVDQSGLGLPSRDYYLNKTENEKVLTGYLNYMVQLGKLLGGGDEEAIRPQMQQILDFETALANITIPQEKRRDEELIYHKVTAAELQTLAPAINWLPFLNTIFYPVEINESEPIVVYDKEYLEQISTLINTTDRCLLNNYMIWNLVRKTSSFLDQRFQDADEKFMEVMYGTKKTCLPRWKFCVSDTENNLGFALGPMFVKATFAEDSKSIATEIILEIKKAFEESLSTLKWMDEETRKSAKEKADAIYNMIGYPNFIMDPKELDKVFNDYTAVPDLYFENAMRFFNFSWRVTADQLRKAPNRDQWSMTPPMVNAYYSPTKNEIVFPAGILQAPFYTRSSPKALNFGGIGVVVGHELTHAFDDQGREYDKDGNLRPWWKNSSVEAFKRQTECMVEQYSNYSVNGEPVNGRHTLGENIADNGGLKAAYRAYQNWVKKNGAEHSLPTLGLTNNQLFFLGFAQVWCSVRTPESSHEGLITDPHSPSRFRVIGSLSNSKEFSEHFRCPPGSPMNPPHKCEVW
Assay: In vitro investigation of the ECE-inhibitory effect (recombinant human ECE in CHO cell membrane fraction)
Format: biochemical
Settings: 24 μM synthetic peptide substrate, pH 7.0, 37° C., 60 min
Experimental: 3. In vitro investigations of the ECE-inhibitory effect of the substances.
The IC50 of the substances was determined as a measure of their inhibitory activity. The IC50 of a test substance with enzyme-inhibiting activity is the concentration of the test substance at which 50% of the enzymatic activity of ECE is inhibited.
Preparation of the ECE-containing endothelial cell membrane fraction.
Egg cells from the Chinese hamster (Chinese hamster ovary cells, hereinafter CHO cells) in which there was recombinant expression of human ECE [see Schmidt et al., Federation of European Biochemical Societies Letters 356 238-43 (1994)] were lysed, and the cell membranes were removed by centrifugation at 10,000×g for 10 min. The cell membranes were washed by resuspension and repeated centrifugation three times. The ECE-containing cell membrane fraction was resuspended in 100 mM tris/HCl buffer (tris(hydroxymethyl)aminomethane/HCl, pH 7.0, containing 250 mM NaCl) and stored frozen at -70° C. before the enzyme test.
To carry out the test, respective 100 μl samples of various incubation solutions each containing 5 μg protein from an ECE-containing preparation of endothelial cell membranes and different amounts of test substance and 24 μM substrate (synthetic peptide: H2 N-Asp-Ile-Ala-Trp-Phe-Asn-Thr-Pro-Glu-His-Val-Val-Pro-Tyr-Gly-Leu-Gly-COOH) (SEQ ID NO:1) and 100 mM tris buffer (tris(hydroxymethyl)aminomethane/HCl, pH 7.0, containing 250 mM sodium chloride) were prepared. […]
The incubation solutions were preincubated at 37° C. for 15 min before the substrate was added. […] The hydrolysis products H2N-Asp-Ile-Ala-Trp-COOH (SEQ ID NO:2) and H2 N-Phe-Asn-Thr-Pro-Glu-His-Val-Val-Pro-Tyr-Gly-Leu-Gly-COOH (SEQ ID NO:3) formed from the substrate by the enzymatic reaction were determined with the aid of high-pressure liquid chromatography (HPLC). […] The IC50 was calculated for each test substance in a known manner from the concentrations of hydrolysis products measured in the various samples.

O=C(O)CN1C(=O)[C@@H](NC(=O)C2(C[C@@H](CCc3ccccc3)C(=O)O)CCCC2)CCc2ccccc21 [Example 8, (3S,2'R)-3-[1-(2'-Carboxy-4'-phenylbutyl)cyclopentane-1-carbonylamino]-2,3,4,5-tetrahydro-2-oxo-1H-1-benzazepine-1-acetic acid]
IC50: 1290 nM
